# Ends that are not written are not given here. * marks the point of attachment. Biotin = O=C1N[C@H]2[C@H](CS[C@H]2CCCCC(=O)*)N1
# Legend:
# [1] = biological target: T1, PD-L1 (Homo sapiens, UniProt Q9NZQ7); experiment: Immunohistochemistry using biotinylated peptide on FFPE tissues; type: binding; parameters: Seven PD-L1 expressing NSCLC patient tissues were obtained from the MU OneHealth tissue bank; tissue MU OneHealth tissue bank; U.S. Biomax (TMA) LC1923; host or cells: FFPE placenta, seven NSCLC patient tissues, 192-case lung cancer tissue microarray, four Hodgkin's lymphoma cases; settings: for staining of placental trophoblasts: FFPE placenta tissue (positive control), FIG. 8
# Description: To detect PD-L1 in FFPE tissues, manual IHC techniques were employed with a biotin-conjugated version of peptide RK-10-Cy5 and compared with Ventana PD-L1 (SP263) Rabbit monoclonal Primary Antibody stained on a Roche Benchmark Ultra autostainer. Seven PD-L1 expressing NSCLC patient tissues were obtained from the MU OneHealth tissue bank and de-identified according to IRB protocols. Paraffin-embedded patient tissue slides were baked overnight, then de-waxed and rehydrated according to standard protocols. Tissue sections were then subjected to antigen retrieval in EDTA at 95° C. for 20 minutes in EDTA […]. The solution is then cooled for an additional 20 minutes on the bench top prior to buffer rinse. Tissues were then incubated with […] for 2 hours in a humid chamber at RT. After 2 hours, slides were washed with buffer and treated with PIERCE™ High Sensitivity Streptavidin-HRP (1:200 dilution) (Sigma) for 30 minutes at RT in a humid chamber. Once this was complete, slides were again washed in buffer then treated with DAB (3,3′-Diaminobenzidine; Sigma) for 10 minutes. Slides were again washed in buffer, then dehydrated using graded alcohol and xylene and counterstained with hematoxylin. Slides were then imaged using bright-field microscopy on a Leica DM5500.
# Seven Patient NSCLC tissues were investigated for PD-L1 using either manual IHC with 15 μM RK-10-Biotin peptide, or the Ventana PD-L1 (SP263) rabbit monoclonal primary antibody stained on a Roche Benchmark Ultra. In this study the peptide was conjugated with biotin, which was used to bind a secondary treatment of streptavidin-HRP. Formalin-Fixed, Paraffin Embedded (FFPE) placenta tissue was used as the positive control, since PD-L1 is expressed in placental trophoblasts (Veras, E., Kurman, R. J., Wang, T.-L. & Shih, I.-M. International Journal of Gynecological Pathology Publish Ahead of Print). This study also utilized biotinylated mock peptide RK-11-Biotin as a negative control. This mock peptide was synthesized to have very low affinity to PD-L1. Both the PD-L1 peptide and Ventana clone SP263 stained the trophoblasts heavily in the placental tissue (FIG. 8). […] Blocking of the Ventana antibody was achieved by first treating the placenta tissue with RK-10-Biotin for 30 minutes, washing, and treating on the Roche autostainer according to specifications. […] As a negative control, normal lung, breast, and colorectal tissues were stained using RK-10 and SP263.
# Once confidence in PD-L1 staining was established in repeated placenta tissues, staining in seven NSCLC patient tissues (patients ‘A’ through ‘G’) was compared with the Ventana SP263 antibody and RK-10-Biotin (FIG. 9). […]
# [2] = biological target: T1, PD-L1; experiment: IHC blocking using PD-L1 peptide or Ventana antibody SP263; type: binding; parameters: Seven PD-L1 expressing NSCLC patient tissues were obtained from the MU OneHealth tissue bank; tissue MU OneHealth tissue bank; U.S. Biomax (TMA) LC1923; host or cells: FFPE placenta, seven NSCLC patient tissues, 192-case lung cancer tissue microarray, four Hodgkin's lymphoma cases; settings: placenta tissue treated with RK-10-Biotin for 30 minutes, then Ventana SP263 on Roche autostainer, FIG. 8 panel c
# Procedure: To test specificity of the PD-L1 peptide, PD-L1 receptors were first blocked on the tissue with RK-10 peptide for 1 hour prior to autostaining the tissue with SP263 antibody using the Roche autostainer with the Ventana PD-L1 kit according to Roche's specifications. Blocking of the RK-10 peptide using the SP263 antibody was also investigated by first treating the tissue with SP263 antibody for 30 minutes prior to treating the tissue with peptide according to the previously mentioned protocol.
# Seven Patient NSCLC tissues were investigated for PD-L1 using either manual IHC with 15 μM RK-10-Biotin peptide, or the Ventana PD-L1 (SP263) rabbit monoclonal primary antibody stained on a Roche Benchmark Ultra. In this study the peptide was conjugated with biotin, which was used to bind a secondary treatment of streptavidin-HRP. Formalin-Fixed, Paraffin Embedded (FFPE) placenta tissue was used as the positive control, since PD-L1 is expressed in placental trophoblasts (Veras, E., Kurman, R. J., Wang, T.-L. & Shih, I.-M. International Journal of Gynecological Pathology Publish Ahead of Print). This study also utilized biotinylated mock peptide RK-11-Biotin as a negative control. This mock peptide was synthesized to have very low affinity to PD-L1. Both the PD-L1 peptide and Ventana clone SP263 stained the trophoblasts heavily in the placental tissue (FIG. 8). […]
# T1 sequence (Q9NZQ7 19-290): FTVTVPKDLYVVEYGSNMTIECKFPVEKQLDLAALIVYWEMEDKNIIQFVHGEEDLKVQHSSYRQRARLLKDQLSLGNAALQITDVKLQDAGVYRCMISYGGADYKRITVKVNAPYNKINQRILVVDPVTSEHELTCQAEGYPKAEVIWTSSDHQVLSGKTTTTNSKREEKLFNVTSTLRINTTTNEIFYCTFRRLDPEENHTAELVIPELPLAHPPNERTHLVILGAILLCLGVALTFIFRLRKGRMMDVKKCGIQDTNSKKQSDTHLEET
"staining of normal tissues ([1]; normal lung, breast and colorectal tissues (negative control))",Substance,staining of placental trophoblasts [1],"tumor staining in NSCLC patient tissues ([1]; seven NSCLC patient tissues A-G, 15 μM peptide, FIG. 9)",SP263 staining after pre-blocking with peptide [2]
–,Biotin-GSGSGSTYLCGAISLAPKAQIKESL [RK-10-Biotin],heavy membrane staining of the trophoblast cells,heaviest staining was observed localized to the tumor regions of the tissues,drastic reduction of staining
–,Biotin-GSGSGSFVLNWYRMSPSNQTDKLAA [RK-11-Biotin],light staining at high concentrations,–,–
negative for PD-L1 expression,GSGSGSTYLCGAISLAPKAQIKESL [RK-10],–,–,–

# Source: patent US11447550B2, “Peptides for molecular detection of PD-L1” (THE CURATORS OF THE UNIVERSITY OF MISSOURI, priority 2016, dated 2022)
